Our source for the inhibition values is patent US20260297542A1, “HERBICIDE RESISTANT PLANTS” (SYNGENTA CROP PROTECTION AG, priority 2023, published 2026).

What all share (test): E. coli hemG growth inhibition by herbicide, AtPPO1 variant
Format in all cases: cell-based
What all share (conditions): read-out: percentage growth inhibition

Test [1] concerns the target T1, AtPPO1 Q272I (Arabidopsis thaliana, UniProt P55826, Q272I).
T1 construct: expressed in transfected cells; host or cells: E. coli BL21(DE3) hemG (hemG replaced by CmR), pET24a plasmid
T1 sequence (P55826 35-537 Q272I): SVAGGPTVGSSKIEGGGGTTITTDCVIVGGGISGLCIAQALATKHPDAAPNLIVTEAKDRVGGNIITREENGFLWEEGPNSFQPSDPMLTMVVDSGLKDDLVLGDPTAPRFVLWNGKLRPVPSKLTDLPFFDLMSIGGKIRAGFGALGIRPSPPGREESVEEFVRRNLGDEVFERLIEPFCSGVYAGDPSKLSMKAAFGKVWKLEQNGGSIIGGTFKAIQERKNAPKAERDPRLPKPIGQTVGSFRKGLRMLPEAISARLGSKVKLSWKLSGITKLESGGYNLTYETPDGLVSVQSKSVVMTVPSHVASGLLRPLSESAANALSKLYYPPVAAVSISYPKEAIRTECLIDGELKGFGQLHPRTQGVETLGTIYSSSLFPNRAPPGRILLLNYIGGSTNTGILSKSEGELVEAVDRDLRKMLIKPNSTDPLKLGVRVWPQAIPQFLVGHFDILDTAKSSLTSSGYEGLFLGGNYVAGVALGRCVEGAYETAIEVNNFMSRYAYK
The gist of the method:
(§1)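 Variant plasmids were transformed into hemG-null BL21(DE3) and precultured 24 h with hematin. Washed cells were diluted 1:100 into Terrific broth containing 0.1 mM IPTG and herbicide (6.25 ppm 0 or E; 0.78 ppm B) or DMSO. After 24 h at 37° C, OD600 gave percent inhibition.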

Test [2] has as its target T2, AtPPO1 V365L (Arabidopsis thaliana, UniProt P55826, V365L).
T2 construct: expressed in transfected cells; host or cells: E. coli BL21(DE3) hemG (pET24a, T7 promoter)
T2 sequence (P55826 35-537 V365L): T1 sequence (P55826 35-537 Q272I) with I238Q, V331L
The gist of the method:
as §1

For test [3], the target named is T3, AtPPO1 F207Y (Arabidopsis thaliana, UniProt P55826, F207Y).
T3 construct: expressed in transfected cells; host or cells: E. coli BL21(DE3) hemG (hemG replaced by CmR), pET24a plasmid
T3 sequence (P55826 35-537 F207Y): T1 sequence (P55826 35-537 Q272I) with F173Y, I238Q
The procedure, abridged: as §1

Test [4] has as its target T4, AtPPO1 K281N (Arabidopsis thaliana, UniProt P55826, K281N).
T4 construct: expressed in transfected cells; host or cells: E. coli BL21(DE3) hemG (hemG replaced by CmR), pET24a plasmid
T4 sequence (P55826 35-537 K281N): T1 sequence (P55826 35-537 Q272I) with I238Q, K247N
The procedure, abridged:
as §1

Positions count from the first letter of the chain named.

By inhibition is commonly meant the drop in the measured response relative to a control, in per cent. On to `C#CCN1C(=O)C(F)(F)Oc2cc(F)c(-n3c(=O)n(C)c(=S)n(C)c3=O)cc21` [Herbicide B, trifludimoxazin], for which the inhibition at 0.78 ppm in test [1] was 24%; in test [2] it was 11%; in test [3], 29%; in test [4], 39%.
In the case of `CCOC(=O)[C@]1(C)CC(c2cc(-n3c(=O)n(C)c(=S)n(C)c3=O)c(F)cc2Cl)=NO1` [Herbicide D, ethyl (5S)-3-[2-chloro-5-(3,5-dimethyl-2,6-dioxo-4-thioxo-1,3,5-triazinan-1-yl)-4-fluoro-phenyl]-5-methyl-4H-isoxazole-5-carboxylate], the inhibition at 6.25 ppm in test [1] is 29%; in test [2] it was 55%; in test [3], 19%; in test [4] it was 37%.
In the same order, the values of `CC(C)N(C)S(=O)(=O)NC(=O)c1cc(-n2c(=O)cc(C(F)(F)F)n(C)c2=O)c(F)cc1Cl` [Herbicide E, saflufenacil] are 63%, 27%, 66% and 56%.
